“Also recorded” adds a separate entry of the source.
Tests used:
[1] = test system: rats with SU-5416/hypoxia-induced PAH; experiment: SU-5416/hypoxia-induced PAH, prevention study with eplerenone; format: in vivo, rat; conditions: SU-5416 (20 mg/kg s.c.) plus chronic hypoxia 21 days vs normal rats; n=5
HPAECs [2] = experiment: Aldosterone levels in HPAEC culture medium by enzyme immunoassay; format: cell-based, human; conditions: 24 h, n=4
[3] = test system: PGC-1α / steroidogenesis factor-1 (SF); experiment: Co-immunoprecipitation of PGC-1α with SF in HPAECs; format: cell-based, human; conditions: ET-1 10 nM, 24 h, n=3
Procedure: Co-immunoprecipitation of proteins. Cell monolayers were washed twice with ice-cold PBS and incubated on ice with RIPA buffer supplemented with various protease inhibitors (Millpore). Cells were scraped with a rubber policeman and samples were rotated at 4° C. for 15 min. Lysates were centrifuged at 14,000×g at 4° C. for 15 min and the then pre-cleared with a 50% slurry of Protein G agarose beads (Santa Cruz Biotechnology) mixed with PBS. Following removal of the beads by centrifugation, cell lysates were incubated with an anti-ETB or anti-PGC-1α antibody (Santa Cruz Biotechnology) overnight at 4° C. The immunocomplex was captured by incubating lysates with 50% Protein G agarose bead slurry at 4° C. for 1 h. Beads were collected by pulse centrifugation, resuspended in non-reducing sample buffer, and then boiled for 10 min to dissociate the immunocomplex from the beads. Western analysis was performed with an anti-SF (Santa Cruz) or anti-sulfenic acid (R—SOH) antibody (Millpore) as described above.

[4] = test system: CYP11B2 (aldosterone synthase); experiment: CYP11B2 protein expression in HPAECs by Western analysis; format: cell-based, human; conditions: 24 h, n=3
Procedure: (§1) Cell culture and treatments. Human pulmonary artery endothelial cells (HPAECs) (Lonza) (male donors) were grown to confluence using phenol-free EGM-2 medium supplemented with 5% fetal bovine serum at 37° C., 5% CO2. Cells were passaged twice-weekly using 0.5% trypsin/EDTA, and experiments were performed on cells from passages 4-10. Aldosterone (Steraloids) and ET-1 (1-100 nM) (Sigma-Aldrich) were dissolved in dimethylsufloxide ([…]) and deoxygenated water, respectively, which served as vehicle controls. Cells were treated with aldosterone (10^−−10^−7 mol/L) for 24 h and in selected experiments co-incubated with the mineralocorticoid receptor inhibitor spironolactone (10 μM/l) (Sigma-Aldrich).
(§2) Immunoblotting. Proteins were size fractionated electrophoretically using SDS-PAGE and transferred to polyvinylidene fluoride membranes. The membranes were incubated with anti-ETA (Santa Cruz Biotechnology), anti-ETB (Santa Cruz Biotechnology), anti-NOX4 (Santa Cruz Biotechnology), anti-p22P^phox (Santa Cruz), anti-eNOS (Cell Signaling), anti-PGC-1α (Santa Cruz Biotechnology), and anti-SF (Santa Cruz Biotechnology) antibodies overnight at 4° C. and visualized using the ECL detection system (Amersham Biosciences). In experiments to assess ETA expression, purified ETA protein (Novus Biological) was loaded to serve as an internal control.

HPAECs [5] = experiment: Amplex Red assay of hydrogen peroxide levels in HPAECs; format: cell-based, human; conditions: ET-1 10 nM, HPAECs; p=0.43, n=4
Procedure: Human pulmonary artery endothelial cells (HPAECs) (Lonza) (male donors) were grown to confluence using phenol-free EGM-2 medium supplemented with 5% fetal bovine serum at 37° C., 5% CO2. Cells were passaged twice-weekly using 0.5% trypsin/EDTA, and experiments were performed on cells from passages 4-10. Aldosterone (Steraloids) and ET-1 (1-100 nM) (Sigma-Aldrich) were dissolved in dimethylsufloxide (10 nmol/L) and deoxygenated water, respectively, which served as vehicle controls. Cells were treated with aldosterone (10^−−10^−7 mol/L) for 24 h and in selected experiments co-incubated with the mineralocorticoid receptor inhibitor spironolactone (10 μM/l) (Sigma-Aldrich).

[6] = test system: ETB-dependent NO. generation in HPAECs; experiment: NO. metabolites (NO2−, NO3−) in ET-1-stimulated HPAECs; format: cell-based, human
Procedure: Cell culture and treatments. Human pulmonary artery endothelial cells (HPAECs) (Lonza) (male donors) were grown to confluence using phenol-free EGM-2 medium supplemented with 5% fetal bovine serum at 37° C., 5% CO2. Cells were passaged twice-weekly using 0.5% trypsin/EDTA, and experiments were performed on cells from passages 4-10. Aldosterone (Steraloids) and ET-1 (1-100 nM) (Sigma-Aldrich) were dissolved in dimethylsufloxide (10 nmol/L) and deoxygenated water, respectively, which served as vehicle controls. Cells were treated with aldosterone (10^−−10^−7 mol/L) for 24 h and in selected experiments co-incubated with the mineralocorticoid receptor inhibitor spironolactone (10 μM/l) (Sigma-Aldrich).

eNOS = eNOS activity ([14C] arginine, NOS activity kit) in HPAECs; format: cell-based, human; conditions: ET-1 (10 nM) stimulated HPAECs, without or with aldosterone; n=3
Procedure: eNOS activity. eNOS activity was measured using the NOS activity kit (Cayman) according to the manufacturer's instructions with some modifications. Cells were washed with PBS containing 1 mM EDTA, transferred to a microcentrifuge tube, and centrifuged at 14,000×g at 4° C. for 2 min. The supernatant was decanted and homogenization buffer (250 mM Tris-HCl, pH 7.4, 6 μM BH4, 2 μM flavin adenine dinucleotide, and 2 μM flavin adenine mononucleotide) was added to the cell pellets. […] The samples were then centrifuged at 14,000×g for 30 seconds and radioactivity of the eluant was quantified in a liquid scintillation counter (Beckman-Coulter).

CYP11B2 promoter = experiment: Chromatin immunoprecipitation assay, CYP11B2 promoter; format: cell-based, human; conditions: ET-1 10 nM, 24 h; vs V 16.3±9.8; n=3
Procedure: Chromatin immunoprecipitation assay. Chromatin immunoprecipitation assays were performed using the QuikChIP assay (Imgenex) according to the manufacturer's instructions. PCR amplification was performed on the proximal region of the CYP11B2 promoter region containing the gonadotrope-specific element ^51. The primers used were: forward 5′-[…]-3′ (SEQ ID NO:2) and reverse 5′-[…]-3′ (SEQ ID NO: 3). CYP11B2 primers used for PCR were forward: 5′ […]-3′ (SEQ ID NO: 4) and reverse: 5′-[…]-3′ (SEQ ID NO:5).

[7] = test system: PGC-1α and steroidogenesis factor-1 (SF); experiment: PGC-1α and SF protein expression in HPAECs by Western analysis; format: cell-based, human; conditions: for PGC-1α protein expression levels: 24 h, n=3
Procedure: as §1, §2

HPAECs [8] = experiment: 3-Nitrotyrosine immunohistochemistry in HPAECs; format: cell-based, human; conditions: V 24.1±3.3, n=5
Procedure: 3-Nitrotyrosine immunohistochemistry. Cells grown to confluence on glass chamber slides were fixed following treatments and anti-3-nitrotyrosine immunohistochemistry (Santa Cruz Biotechnology) was performed using the 3,3′-diaminobenzidine substrate method (Vector laboratories) as described previously.^1

ETB = target: T1, ETB (Homo sapiens, UniProt P24530); experiment: Disulfide bond formation of ETB in transfected COS-7 cells exposed to H2O2; format: cell-based; conditions: H2O2 200 μmol/L for 20 min
T1 construct: host or cells: COS-7
T1 sequence (P24530 27-442): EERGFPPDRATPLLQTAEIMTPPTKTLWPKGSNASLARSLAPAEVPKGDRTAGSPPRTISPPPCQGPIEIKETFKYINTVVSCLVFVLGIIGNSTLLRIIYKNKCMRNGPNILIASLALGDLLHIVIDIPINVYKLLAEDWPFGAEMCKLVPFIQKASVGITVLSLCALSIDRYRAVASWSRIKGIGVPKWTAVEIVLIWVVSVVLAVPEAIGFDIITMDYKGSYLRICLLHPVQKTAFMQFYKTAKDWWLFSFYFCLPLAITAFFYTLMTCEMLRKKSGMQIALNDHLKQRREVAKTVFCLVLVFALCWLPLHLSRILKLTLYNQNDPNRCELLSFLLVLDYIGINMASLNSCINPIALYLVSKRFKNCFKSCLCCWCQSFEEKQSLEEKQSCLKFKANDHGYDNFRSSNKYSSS
Procedure: Western analysis to detect ETB disfulfide bond formation. Western analysis to detect ETB disulfide bond formation was performed as described previously.^7 Briefly, protein extracts from cells were lysed in alkylating buffer containing 0.1 M Tris-HCL, pH 6.8, 1% SDS, 100 mM iodoacetamide, and 100 mM N-ethylmaleimide, and sonicated on ice for 5 min followed by a 30-min incubation at 25° C. Alkylated proteins were then precipitated with acetone. Proteins were resuspended in 50 μl of 0.1 M Tris-HCl, pH 7.4, 1% SDS; and disulfides were reduced with 5 mM tris(2-carboxyethyl)phosphine hydrochloride (TCEP). Following a 20-min incubation at 25° C., TCEP was removed with a Micro Bio-Spin™ column 6 (Bio-Rad), and 1% SDS was added to the eluant. The cysteines previously participating in a disulfide bond, now reduced, were labeled with 1 mM polyethylene glycol-conjugated maleimide (molecular mass 10 kDa) (Fluka). After a 1-h incubation at 25° C., proteins were precipitated with acetone, resuspended in 50 μl of non-reducing SDS electrophoresis buffer, and boiled for 10 min. Protein samples were then size-fractionated electrophoretically using SDS-PAGE, and transferred to a polyvinylidene fluoride membrane. […]

[9] = test system: ETB-dependent NO. synthesis in COS-7 cells; experiment: ETB-dependent NO2− formation in transfected COS-7 cells after H2O2; format: cell-based, monkey (African green monkey); conditions: COS-7 cells co-expressing WT-eNOS; H2O2 200 μmol/L 60 min, then ET-1 10 nM 10 min; n=4
Procedure: NO. metabolites. Nitrite (NO2^−) and nitrate (NO3^−) were measured in cell culture medium containing 2% fetal bovine serum and L-arginine (1 mmol/l) (Sigma-Aldrich) by 1(H)-naphthotriazole fluorescence (Cayman) as previously reported.^1 To measure NO2^− levels in whole lung tissue, lung specimens were harvested from rats and snap frozen in liquid nitrogen. Samples were thawed, homogenized in PBS (pH 7.4), and centrifuged at 14,000×g at 4° C. for 20 min. The supernatant was ultrafiltered using a 30 kDa molecular weight filter (Millpore), and the eluant was used to measure NO2^− levels according to manufacturer's instructions (Cayman).
Site-directed mutagenesis and transfection. cDNAs encoding wild type (WT) eNOS and WT-ETB from human were cloned into the mammalian expression vector pCMV6 (Origene). The C405A-ETB mutant was purchased from Genewiz (South Plainfield, N.J.). […] After this time, the medium was replaced with Dulbecco's Modified Eagle Medium (Gibco) supplemented with 10% FBS, and experiments were performed after 24 h.

Cc1cc(C)c(/C=C2\C(=O)Nc3ccccc32)[nH]1 [SU-5416]
increase in plasma aldosterone levels [1]: 418%

endothelin-1 [ET-1]
aldosterone levels in the cell culture medium (HPAECs [2]; ET-1 1 nM): 241.1±44.8 % control
aldosterone levels in the cell culture medium (HPAECs [2]; ET-1 10 nM): 283.5±94.7 % control
aldosterone levels in the cell culture medium (HPAECs [2]; ET-1 100 nM): 396.0±116.5 % control
association between PGC-1α and SF (co-immunoprecipitation) [3]: 1260±104 arb. units
CYP11B2 protein expression levels ([4]; ET-1 1 nM): 157.3±27.5 % control
CYP11B2 protein expression levels ([4]; ET-1 10 nM): 180.4±13.4 % control
CYP11B2 protein expression levels ([4]; ET-1 100 nM): 234.8±4.3 % control
H2O2 levels compared to V-treated cells (HPAECs [5]): no effect
NO2^− generation ([6]; ET-1 10 nM, maximum effect at 10 min, HPAECs, vs V 29.4±3.6, n=3): 139.4±31.8 μM/μg protein
total NO. metabolite (NOx: NO2^−+NO3^−) formation ([6]; ET-1 (10 nM) stimulated HPAECs, without or with aldosterone, n=3): 157.9±12.7 μM/μg protein
NO2^−/NO3^− ratio compared to V ([6]; ET-1 alone, HPAECs): did not affect
eNOS activity (eNOS): 18.5±3.5 [^14C] L-citrulline c.p.m./μg protein
SF binding to the CYP11B2 promoter (CYP11B2 promoter): 61.6±9.3 arb. units
PGC-1α protein expression levels ([7]; ET-1 1 nM): 176.5±52.8 % control
PGC-1α protein expression levels ([7]; ET-1 10 nM): 224.7±68.1 % control
PGC-1α protein expression levels ([7]; ET-1 100 nM): 296.7±145.8 % control
SF protein levels ([7]; ET-1, 24 h): no effect
levels of 3-nitrotyrosine (HPAECs [8]): 31.2±3.2 arb. units

B1: WT-ETB: wild type human ETB expressed in COS-7 cells (protein)
chain: EERGFPPDRATPLLQTAEIMTPPTKTLWPKGSNASLARSLAPAEVPKGDRTAGSPPRTISPPPCQGPIEIKETFKYINTVVSCLVFVLGIIGNSTLLRIIYKNKCMRNGPNILIASLALGDLLHIVIDIPINVYKLLAEDWPFGAEMCKLVPFIQKASVGITVLSLCALSIDRYRAVASWSRIKGIGVPKWTAVEIVLIWVVSVVLAVPEAIGFDIITMDYKGSYLRICLLHPVQKTAFMQFYKTAKDWWLFSFYFCLPLAITAFFYTLMTCEMLRKKSGMQIALNDHLKQRREVAKTVFCLVLVFALCWLPLHLSRILKLTLYNQNDPNRCELLSFLLVLDYIGINMASLNSCINPIALYLVSKRFKNCFKSCLCCWCQSFEEKQSLEEKQSCLKFKANDHGYDNFRSSNKYSSS
disulfide bond formation of ETB (ETB): formation of one or two disulfide bonds; also recorded: formation of 1 or 2 disulfide bonds
decrease of ET-1-stimulated NO2^− formation by H2O2 compared to V-treated cells [9]: 78.0%

B2: C405A-ETB (protein)
chain: EERGFPPDRATPLLQTAEIMTPPTKTLWPKGSNASLARSLAPAEVPKGDRTAGSPPRTISPPPCQGPIEIKETFKYINTVVSCLVFVLGIIGNSTLLRIIYKNKCMRNGPNILIASLALGDLLHIVIDIPINVYKLLAEDWPFGAEMCKLVPFIQKASVGITVLSLCALSIDRYRAVASWSRIKGIGVPKWTAVEIVLIWVVSVVLAVPEAIGFDIITMDYKGSYLRICLLHPVQKTAFMQFYKTAKDWWLFSFYFCLPLAITAFFYTLMTCEMLRKKSGMQIALNDHLKQRREVAKTVFCLVLVFALCWLPLHLSRILKLTLYNQNDPNRCELLSFLLVLDYIGINMASLNSCINPIALYLVSKRFKNCFKSCLCCWAQSFEEKQSLEEKQSCLKFKANDHGYDNFRSSNKYSSS
disulfide bond formation of ETB (ETB): resistant to the formation of disulfide bonds; also recorded: resistant to disulfide bond formation
decrease of ET-1-stimulated NO2^− formation by H2O2 compared to V-treated cells [9]: 45.0%
